Literature values, collected in patent EP2103943A1, “GDF-15 for assessing a cardiovascular risk with respect to the administration of antiinflammatory drugs” (F. Hoffmann-La Roche AG, priority 2008, dated 2009).

CS(=O)(=O)c1ccc(C2=C(c3ccccc3)C(=O)OC2)cc1 [Rofecoxib]
additional cardiovascular incidents (myocardial infarction, stroke) (25 mg rofecoxib compared with a placebo, after 18 months of follow-up): 16 per 1,000 treated patients
blood pressure levels (25 mg rofecoxib compared with a placebo, early post-observation phase): higher blood pressure levels
rise in the rate of serious thromboembolic incidents (APPROVE study, patients without any recognisable cardiovascular risk, led to premature discontinuation): 3.9 times
